From patent US20240376094A2, “SELECTIVE BCL-XL PROTAC COMPOUNDS AND METHODS OF USE” (Les Laboratoires Servier, priority 2021, published 2024)

Assays:
Format in all cases: cell-based
[1] = system: EBC-1 lung cancer cell line; assay: EBC-1 cell proliferation, CellTiter-Glo assay; settings: Homo sapiens, 120 h; Ebc-1 cell viability, CTG assay, 5 days of treatment; read-out: CTG 5 day Ebc1 GI50
In short: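 EBC-1 cells seeded at 1000 per well overnight, then exposed to 10-point dilutions (0.508 nM–10 μM final) for 5 days at 37 °C, in triplicate. ATP luminescence by CellTiter-Glo, normalised to untreated wells; GI50 from four-parameter logistic fit, runs valid only with at least one doubling.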

[2] = target: T1, HiBiT-tagged BCL-xL (Homo sapiens, UniProt Q07817); assay: NCI-H1650 BCL-xL protein levels, Nano-Glo HiBiT Lytic Detection; settings: NCI-H1650 expressing HiBiT-tagged BCL-xL, overnight incubation, read-out: Bcl-xl HIBIT NCIH1650 DC50
T1 construct: expressed in transfected cells; host or cells: NCI-H1650 (ATCC No. CRL-5883), engineered HiBiT cell line
T1 sequence (Q07817 whole entry): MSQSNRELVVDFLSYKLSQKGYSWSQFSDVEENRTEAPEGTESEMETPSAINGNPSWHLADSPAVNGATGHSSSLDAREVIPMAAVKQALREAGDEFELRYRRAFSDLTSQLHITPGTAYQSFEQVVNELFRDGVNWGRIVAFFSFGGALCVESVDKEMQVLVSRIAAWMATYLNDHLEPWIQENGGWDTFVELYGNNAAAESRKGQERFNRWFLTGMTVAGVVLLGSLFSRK
In short: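 NCI-H1650 cells expressing HiBiT-tagged BCL-xL (5000/well) were treated overnight at 37° C with 10 concentrations, final 0.508 nM-10 μM, in triplicate. Remaining BCL-xL measured by Nano-Glo HiBiT lytic luminescence, normalized to untreated cells; 50% values by four-parameter logistic fit.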

[3] = system: MOLT-4 cells; assay: MOLT-4 cell viability, CTG assay; settings: Homo sapiens, MOLT-4, 48 h
In short: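 Cells grown in RPMI 1640 with 10% FBS at 37° C, 5% CO2, then exposed to compounds for 48 h (11-point 5-fold dilution, triplicates). ATP measured by CellTiter-Glo luminescence; IC50 from four-parameter fit versus control, mean of ≥2 independent experiments.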

[4] = target: T2, Bcl-xL (Homo sapiens, UniProt Q07817); assay: HCT116 Bcl-xL degradation, capillary-based immunoassay (WES); settings: HCT116, 24 h, 9-point serial dilution
T2 construct: Measured levels of Bcl-xL protein of HCT116 cells treated with the tested compounds; host or cells: HCT116
T2 sequence (Q07817 whole entry): as above
In short: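 HCT116 cells treated 24 h with compound at 10/100 nM and/or 9-point dilution (quadruplicates), then lysed. Bcl-xL measured by capillary WES immunoassay, normalized to cofilin and expressed as % of untreated cells. DC50 from four-parameter curve fit.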

Row | GI50 [1] | DC50 [2] | IC50 [3] | DC50 [4] | SMILES
1 | 69 nM | > 1670 nM | 4.78 nM | 0.681 nM | Cc1c(Nc2nc3ccccc3s2)nnc2c1CCCN2c1ccc(-c2cnn(CC34CC5(C)CC(C)(C3)CC(OCCN(C)CCCCCCCCCCCCCCCOc3ccc6c(c3)C(=O)N(C3CCC(=O)NC3=O)C6=O)(C5)C4)c2C)c(C(=O)O)n1 (stereo not drawn) [Example 119, 6-[3-(1,3-benzothiazol-2-ylamino)-4-methyl-6,7-dihydro-5H-pyrido[2,3-c]pyridazin-8-yl]-3-[1-[[3-[2-[15-[2-(2,6-dioxo-3-piperidyl)-1,3-dioxo-isoindolin-5-yl]oxypentadecyl-methyl-amino]ethoxy]-5,7-dimethyl-1-adamantyl]methyl]-5-methyl-pyrazol-4-yl]pyridine-2-carboxylic acid]
2 | 119 nM | 1 nM | 7.29 nM | 1.68 nM | Cc1ncsc1-c1ccc([C@H](C)NC(=O)[C@@H]2C[C@@H](O)CN2C(=O)[C@@H](NC(=O)CCCCCCNC(=O)c2nc(N3CCCc4c3nnc(Nc3nc5ccccc5s3)c4C)ccc2-c2cnn(CC34CC5(C)CC(C)(C3)CC(OCCN3CCCC3)(C5)C4)c2C)C(C)(C)C)cc1 [Example 120, 6-[3-(1,3-benzothiazol-2-ylamino)-4-methyl-6,7-dihydro-5H-pyrido[2,3-c]pyridazin-8-yl]-3-[1-[[3,5-dimethyl-7-(2-pyrrolidin-1-ylethoxy)-1-adamantyl]methyl]-5-methyl-pyrazol-4-yl]-N-[7-[[(1S)-1-[(2S,4R)-4-hydroxy-2-[[(1S)-1-[4-(4-methylthiazol-5-yl)phenyl]ethyl]carbamoyl]pyrrolidine-1-carbonyl]-2,2-dimethyl-propyl]amino]-7-oxo-heptyl]pyridine-2-carboxamide]
3 | 190 nM | 1 nM | 9.99 nM | 2.57 nM | Cc1cc(N(CCCCN(C)C(=O)CCCCCCCCCCCC(=O)N[C@H](C(=O)N2C[C@H](O)C[C@H]2C(=O)N[C@@H](C)c2ccc(-c3scnc3C)cc2)C(C)(C)C)c2ccc(-c3cnn(C[C@]45C[C@]6(C)C[C@](C)(C4)C[C@@](OCCN(C)C)(C6)C5)c3C)c(C(=O)O)n2)nnc1Nc1nc2ccccc2s1 [Example 121, 6-[[6-(1,3-benzothiazol-2-ylamino)-5-methyl-pyridazin-3-yl]-[4-[[13-[[(1S)-1-[(2S,4R)-4-hydroxy-2-[[(1S)-1-[4-(4-methylthiazol-5-yl)phenyl]ethyl]carbamoyl]pyrrolidine-1-carbonyl]-2,2-dimethyl-propyl]amino]-13-oxo-tridecanoyl]-methyl-amino]butyl]amino]-3-[1-[[3-[2-(dimethylamino)ethoxy]-5,7-dimethyl-1-adamantyl]methyl]-5-methyl-pyrazol-4-yl]pyridine-2-carboxylic acid]
4 | 46 nM | > 1670 nM | 4.6 nM | > 316 nM | Cc1ncsc1-c1ccc([C@H](C)NC(=O)[C@@H]2C[C@@H](O)CN2C(=O)[C@@H](NC(=O)CCCCNC(=O)c2nc(N3CCCc4c3nnc(Nc3nc5ccccc5s3)c4C)ccc2-c2cnn(CC34CC5(C)CC(C)(C3)CC(OCCN3CCCC3)(C5)C4)c2C)C(C)(C)C)cc1 [Example 122, 6-[3-(1,3-benzothiazol-2-ylamino)-4-methyl-6,7-dihydro-5H-pyrido[2,3-c]pyridazin-8-yl]-3-[1-[[3,5-dimethyl-7-(2-pyrrolidin-1-ylethoxy)-1-adamantyl]methyl]-5-methyl-pyrazol-4-yl]-N-[5-[[(1S)-1-[(2S,4R)-4-hydroxy-2-[[(1S)-1-[4-(4-methylthiazol-5-yl)phenyl]ethyl]carbamoyl]pyrrolidine-1-carbonyl]-2,2-dimethyl-propyl]amino]-5-oxo-pentyl]pyridine-2-carboxamide]
5 | 25 nM | 1 nM | 3.69 nM | 1.01 nM | Cc1ncsc1-c1ccc([C@H](C)NC(=O)[C@@H]2C[C@@H](O)CN2C(=O)[C@@H](NC(=O)CCCCCCCCNC(=O)c2nc(N3CCCc4c3nnc(Nc3nc5ccccc5s3)c4C)ccc2-c2cnn(C[C@]34C[C@]5(C)C[C@](C)(C3)C[C@@](OCCN3CCCC3)(C5)C4)c2C)C(C)(C)C)cc1 [Example 124, 6-[3-(1,3-benzothiazol-2-ylamino)-4-methyl-6,7-dihydro-5H-pyrido[2,3-c]pyridazin-8-yl]-3-[1-[[3,5-dimethyl-7-(2-pyrrolidin-1-ylethoxy)-1-adamantyl]methyl]-5-methyl-pyrazol-4-yl]-N-[9-[[(1S)-1-[(2S,4R)-4-hydroxy-2-[[(1S)-1-[4-(4-methylthiazol-5-yl)phenyl]ethyl]carbamoyl]pyrrolidine-1-carbonyl]-2,2-dimethyl-propyl]amino]-9-oxo-nonyl]pyridine-2-carboxamide]
6 | 81 nM | 1 nM | 9.34 nM | 0.487 nM | Cc1ncsc1-c1ccc([C@H](C)NC(=O)[C@@H]2C[C@@H](O)CN2C(=O)[C@@H](NC(=O)CCCCCCCCCCNC(=O)c2nc(N3CCCc4c3nnc(Nc3nc5ccccc5s3)c4C)ccc2-c2cnn(CC34CC5(C)CC(C)(C3)CC(OCCN3CCCC3)(C5)C4)c2C)C(C)(C)C)cc1 [Example 125, 6-[3-(1,3-benzothiazol-2-ylamino)-4-methyl-6,7-dihydro-5H-pyrido[2,3-c]pyridazin-8-yl]-3-[1-[[3,5-dimethyl-7-(2-pyrrolidin-1-ylethoxy)-1-adamantyl]methyl]-5-methyl-pyrazol-4-yl]-N-[11-[[(1S)-1-[(2S,4R)-4-hydroxy-2-[[(1S)-1-[4-(4-methylthiazol-5-yl)phenyl]ethyl]carbamoyl]pyrrolidine-1-carbonyl]-2,2-dimethyl-propyl]amino]-11-oxo-undecyl]pyridine-2-carboxamide]
7 | 1430 nM | > 1670 nM | 240 nM | > 316 nM | Cc1cc(N(CCCCN(C)C(=O)CCCCCCCCCSC(C)(C)[C@H](NC(=O)C2(F)CC2)C(=O)N2C[C@H](O)C[C@H]2C(=O)NCc2ccc(-c3scnc3C)cc2)c2ccc(-c3cnn(CC45CC6(C)CC(C)(C4)CC(OCCN(C)C)(C6)C5)c3C)c(C(=O)O)n2)nnc1Nc1nc2ccccc2s1 [Example 126, 6-[[6-(1,3-benzothiazol-2-ylamino)-5-methyl-pyridazin-3-yl]-[4-[10-[(2R)-2-[(1-fluorocyclopropanecarbonyl)amino]-3-[(2S,4R)-4-hydroxy-2-[[4-(4-methylthiazol-5-yl)phenyl]methylcarbamoyl]pyrrolidin-1-yl]-1,1-dimethyl-3-oxo-propyl]sulfanyldecanoyl-methyl-amino]butyl]amino]-3-[1-[[3-[2-(dimethylamino)ethoxy]-5,7-dimethyl-1-adamantyl]methyl]-5-methyl-pyrazol-4-yl]pyridine-2-carboxylic acid]
8 | 3 nM | 1 nM | 5.3 nM | 7.34 nM | Cc1ncsc1-c1ccc([C@H](C)NC(=O)[C@@H]2C[C@@H](O)CN2C(=O)[C@@H](NC(=O)CCCCCCCNC(=O)c2nc(N3CCCc4c3nnc(Nc3nc5ccccc5s3)c4C)ccc2-c2cnn(CC34CC5(C)CC(C)(C3)CC(OCCN3CCCC3)(C5)C4)c2C)C(C)(C)C)cc1 [Example 129, 6-[3-(1,3-benzothiazol-2-ylamino)-4-methyl-6,7-dihydro-5H-pyrido[2,3-c]pyridazin-8-yl]-3-[1-[[3,5-dimethyl-7-(2-pyrrolidin-1-ylethoxy)-1-adamantyl]methyl]-5-methyl-pyrazol-4-yl]-N-[8-[[(1S)-1-[(2S,4R)-4-hydroxy-2-[[(1S)-1-[4-(4-methylthiazol-5-yl)phenyl]ethyl]carbamoyl]pyrrolidine-1-carbonyl]-2,2-dimethyl-propyl]amino]-8-oxo-octyl]pyridine-2-carboxamide]
9 | 2 nM | 1 nM | 4.04 nM | 0.857 nM | Cc1ncsc1-c1ccc([C@H](C)NC(=O)[C@@H]2C[C@@H](O)CN2C(=O)[C@@H](NC(=O)CCCCCCCCCNC(=O)c2nc(N3CCCc4c3nnc(Nc3nc5ccccc5s3)c4C)ccc2-c2cnn(CC34CC5(C)CC(C)(C3)CC(OCCN3CCCC3)(C5)C4)c2C)C(C)(C)C)cc1 [Example 130, 6-[3-(1,3-benzothiazol-2-ylamino)-4-methyl-6,7-dihydro-5H-pyrido[2,3-c]pyridazin-8-yl]-3-[1-[[3,5-dimethyl-7-(2-pyrrolidin-1-ylethoxy)-1-adamantyl]methyl]-5-methyl-pyrazol-4-yl]-N-[10-[[(1S)-1-[(2S,4R)-4-hydroxy-2-[[(1S)-1-[4-(4-methylthiazol-5-yl)phenyl]ethyl]carbamoyl]pyrrolidine-1-carbonyl]-2,2-dimethyl-propyl]amino]-10-oxo-decyl]pyridine-2-carboxamide]
